Results as given in patent US20240109843A1, “BENZALDEHYDE COMPOUNDS WITH DIRECT POLYMER DESTABILIZING EFFECTS TO TREAT SICKLE CELL DISEASE” (VIRGINIA COMMONWEALTH UNIVERSITY, priority 2018, published 2024).
Values joined by “and” are separate entries in the source; they are usually repeats but may differ in a detail not shown here. Identical values can stand only once.

Assays:
Hb [1] = biological target: T1, Hb (Homo sapiens, UniProt P69905); test: Drug partitioning studies, fixed and unfixed Hb adducts in non-sickling AA blood; assay type: cell-based; parameters: Hemoglobin modification, studies using non-sickling AA blood; from tissue; host or cells: non-sickling (AA) human blood, red blood cells; settings: 2 mM; for Fixed Adducts (%) / Unfixed Adduct (%): 6 biological replicates; for Partitioning Ratio (%): fixed relative to unfixed adducts
Description: RBC partitioning studies were conducted both for SS RBCs following sickling studies above, or as separate independent studies with non-sickle blood. Briefly, aliquots of blood samples, which had been incubated with test molecules, were lysed either in deionized water (un-fixed), or in water containing 50 mM sodium borohydride (fixed). Samples were subjected to cation exchange HPLC analyses, as described above. Modified […] (Hb adducts) was determined as a proportion of total Hb in each sample, and partitioning ratio was determined as the relative fraction of Hb modification of fixed samples compared to corresponding non-fixed samples. The partitioning ratio is the relative fraction of Hb that was modified intracellularly by molecules that permeated the RBC membrane, as compared to unfixed adducts which reflect Hb binding without RBC membrane permeation.
Target sequence in this assay (P69905 2-142 limits assumed): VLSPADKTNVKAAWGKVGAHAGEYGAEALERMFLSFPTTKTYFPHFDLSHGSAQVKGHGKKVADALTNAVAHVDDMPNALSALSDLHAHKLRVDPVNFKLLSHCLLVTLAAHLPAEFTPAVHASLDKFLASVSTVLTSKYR
Target sequence in this assay (P68871 2-147 partner limits assumed): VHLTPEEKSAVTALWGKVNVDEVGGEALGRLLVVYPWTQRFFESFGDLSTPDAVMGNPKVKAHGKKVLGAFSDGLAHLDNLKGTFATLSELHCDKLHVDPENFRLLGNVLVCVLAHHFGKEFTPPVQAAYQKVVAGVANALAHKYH

Hb [2] = biological target: T1, Hb; test: Hb modification (drug-adduct formation) in SS blood suspensions by cation-exchange HPLC; assay type: binding; parameters: Blood suspensions from subjects with homozygous SCD; from tissue; host or cells: blood suspensions (20% hematocrit) from donors with homozygous SCD; lysates of the treated red cells; settings: 2 mM, 4 biological replicates
Description: All compounds (Comp 1-13) and comparator molecules (VZHE-039, PP-14, INN-310, and Voxelotor) were evaluated following established procedures. Blood samples from individual donors with homozygous SCD (obtained with informed consent) were diluted using Hemox buffer solution with the addition of glucose (10 mM) and BSA (0.2%) to adjust hematocrit of the blood suspensions to 20%, which standardizes the procedure to normalize the ratio of RBCs to drug, for assay consistency and reproducibility. Briefly, blood suspensions were incubated under room air in the presence of various concentrations of test compounds (0-2 mM) at 37° C. for 1 hour in 96-well round bottom plates. Subsequently, the suspensions were incubated with a hypoxic gas mixture (2.5% Oxygen gas/balance Nitrogen gas) at 37° C. for up to 2 hours prior to fixation with 2% glutaraldehyde solution without exposure to air. The fixated blood aliquots were evaluated by microscopic morphological analysis (image analysis on Image J software) to identify the proportion of sickled and non-sickled RBCs, and sickle inhibition calculated based on the % change from negative control (DMSO).
The residual samples were then washed in phosphate-buffered saline, and hemolyzed in hypotonic lysis buffer, with or without sodium borohydride (50 mM). Aliquots obtained from the lysates with or without sodium borohydride (to reduce Schiff base adducts) were also assessed for level of Hb modification (drug-adduct formation) by cation-exchange HPLC (Hitachi D-7000 Series, Hitachi Instruments, Inc., San Jose, CA) with a weak cation-exchange column (Poly CAT A: 50 mm×4.6 mm, Poly LC, Inc., Columbia, MD). Hemoglobin isotype peaks are eluted with a linear gradient of phase B from 0% to 80% at A410 nm (Mobile Phase A: 40 mM Bis-Tris, 2 mM KCN, pH 6.9; Phase B: 40 mM Bis-Tris, 2 mM KCN, 0.2 M sodium chloride, pH 6.55). Clarified lysate from normal human adult […] (Hb A), as well as commercial standards containing approximately equal amounts of Hb F, A, S and C (Helena Laboratories, Beaumont, TX), were utilized as reference isotypes. Reduced samples were used to assess “fixed adduct” formation (dependent on RBC membrane permeability), whereas non-reduced samples assessed drug-adduct formation independent of drug permeability.
Target sequence in this assay (P69905 2-142): as the sequence (P69905 2-142 limits assumed) above
Target sequence in this assay (P68871 with tags, fused parts or gaps E7V partner): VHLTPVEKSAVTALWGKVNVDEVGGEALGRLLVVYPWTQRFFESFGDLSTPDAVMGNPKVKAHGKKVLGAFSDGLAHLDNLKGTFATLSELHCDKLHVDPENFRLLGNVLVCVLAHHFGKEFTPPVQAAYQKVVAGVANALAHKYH

[3] = Single-dose oral pharmacokinetics in rats; assay type: in vivo, Sprague Dawley rats; settings: Sprague Dawley, rat; single oral dose 100 mg/kg, male rats, whole blood
Description: Single doses of each compound were administered as oral suspensions by gavage in 0.5% carboxy methylcellulose at 100 mg/kg. Whole blood levels were collected for at least 72 hours after dose administration. Bioanalyses were performed with liquid chromatography-tandem mass spectrometry […].
Single-dose pharmacokinetics (PK) in male Sprague Dawley (SD) rats (n=4) were assessed for each compound, and the maximum or peak whole blood concentration and area under the curve are shown in Table 5.

[4] = tested on: RBCs from donors with homozygous SCD; test: Oxygen-independent sickle inhibition in SS blood suspensions under anoxia (100% nitrogen); assay type: cell-based, human; settings: anoxia
Description: To establish oxygen-independent sickle inhibition, the incubation chamber was subsequently opened and exposed to room air for 15 minutes to ensure complete re-oxygenation and reversal of the sickled cells to normal round cells. Reversal was confirmed by microscopy. The incubation chamber was then closed, and the assay was repeated with incubation in 100% nitrogen gas for 1 hour (for screening), or up to 2.5 h (for time-course studies), with collection and fixation of blood aliquots at defined intervals. Aliquot samples were again subjected to microscopic morphological analysis of bright field images to identify the proportion of sickled and non-sickled cells, and sickle inhibition calculated.

Hb [5] = biological target: T1, Hb; test: Oxygen equilibrium curve (OEC) studies with normal whole blood; assay type: cell-based; parameters: Hemoglobin modification, studies using non-sickling AA blood; from tissue; host or cells: non-sickling (AA) human blood, red blood cells; settings: normal whole blood, 0.5, 1, 2 mM
Description: Oxygen equilibrium curve (OEC) studies to determine the effect of the compounds on Hb affinity for oxygen were conducted following standard procedure. Whole blood (30% hematocrit) was incubated in the absence or presence of compounds (0.5 mM, 1.0 mM and 2.0 mM) solubilized in DMSO. […] After equilibration, the sample was removed via syringe and aspirated into an ABL 700 series table top automated blood gas analyzer (Radiometer America, Inc., Westlake, OH) to determine total hemoglobin (tHb), hematocrit (Hct), pH, pCO2, partial pressure of oxygen (pO2), and the Hb-O2 saturation (sO2) values. The measured values of pO2 and sO2 at each oxygen saturation level were then subjected to nonlinear regression analysis using the software Scientist (Micromath, Salt Lake City UT) with the following equation: […]
Aromatic aldehydes are known to prevent hypoxia-induced Hb S polymerization by increasing the Hb affinity for oxygen. We therefore tested the PP compounds in a dose-dependent manner (0.5, 1, 2 mM) for their effect on Hb oxygen binding property. […] These findings confirmed that the potent in vitro activity previously seen in TD7 was at least conserved in the novel PP compounds.
Target sequence in this assay (P69905 2-142 limits assumed): as the sequence (P69905 2-142 limits assumed) above
Target sequence in this assay (P68871 2-147 partner limits assumed): as the sequence (P68871 2-147 partner limits assumed) above

intracellular Hb = biological target: T2, intracellular Hb (Mus musculus, UniProt P01942); test: In vivo modification of intracellular Hb in wild-type mice; parameters: species or system C57BL/6 mice; settings: IP 150 mg/kg, 30% PEG300, 6 h
T2 construct: from tissue; host or cells: blood (red cell lysates) of dosed C57BL/6 mice
Description: We tested in vivo pharmacologic (pharmacodynamics) effects of select PP compounds in C57BL/6 mice. The animals were treated with a single intraperitoneal (IP) (150 mg/kg body weight) dose of PP6, PP10, PP14, and TD7, which were formulated with 30% PEG300. Blood samples were obtained prior to treatment (0) and 1, 3 and 6 h post-treatment, via submandibular bleeding, and subjected to hemolysis using standard methods. Clarified lysates, free of cell debris and red blood cell ghosts were analyzed by cation-exchange HPLC to determine the levels of drug-modified hemoglobin (adducts); and to conduct oxygen equilibrium studies to determine degrees of shift in p50 values using methodologies described earlier for in vitro studies on human samples. In a subsequent follow-up experiment, a new excipient obtained from Catalent Pharma Solutions was also used to formulate PP14 and used for a single intraperitoneal (IP) and oral (150 mg/kg body weight) dose. Blood samples were obtained prior to treatment (0) and 1, 3 or 5 h post-treatment, via submandibular bleeding, and used to determine the levels of drug-modified hemoglobin (adducts); and to conduct oxygen equilibrium studies to determine degrees of shift in p50 values as described above.

sickle red blood cells = test: Antisickling study with human sickle blood under 2.5% oxygen; assay type: cell-based; settings: 0.5, 1 and 2 mM, sickle RBCs
Description: Blood suspensions from subjects with homozygous SCD (resuspended in Hemox™ buffer to a final hematocrit 20%) were incubated under air in the absence or presence of the compounds (0.5 mM, 1 mM and 2 mM) at 37° C. for 1 h to ensure that binding had attained equilibrium. The suspensions were then incubated under hypoxic conditions (2.5% oxygen/97.5% nitrogen) at 37° C. for 1 h. Aliquot samples were fixed with 2% glutaraldehyde solution without exposure to air, and then subjected to microscopic morphological analysis of bright field images (at 40× magnification) of single layer cells on an Olympus BX40 microscope fitted with an Infinity Lite B camera (Olympus), and the coupled Image Capture software. The residual samples were washed in phosphate-buffer saline, and hemolyzed in hypotonic lysis buffer for subsequent Hb-modification and oxygen equilibrium analyses.
The studies described above were conducted using normal whole blood. Next, we investigated whether the improvement in Hb oxygen affinity and the compounds sustained activity also translated to similar effects in SS blood from SCD patients. […] At 1 mM, PP8 and PP9 inhibited nearly 100% of sickling, while PP2, PP6, PP14 inhibited sickling by more than 70%. […] It is clear that the modifications of the present compounds has led to significant improvement in antisickling activity.

T2 sequence (P01942 2-142 limits assumed): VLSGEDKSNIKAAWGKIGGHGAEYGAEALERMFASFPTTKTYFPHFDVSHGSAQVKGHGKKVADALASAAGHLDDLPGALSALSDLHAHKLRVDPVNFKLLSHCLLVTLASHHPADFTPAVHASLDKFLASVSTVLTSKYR
T2 sequence (P02088 2-147 partner limits assumed): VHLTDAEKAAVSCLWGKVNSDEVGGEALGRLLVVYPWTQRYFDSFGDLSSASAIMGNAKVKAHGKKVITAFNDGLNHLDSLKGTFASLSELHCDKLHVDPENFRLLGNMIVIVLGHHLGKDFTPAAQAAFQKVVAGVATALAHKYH

Compound | Fixed Adducts (%) (Hb [1]) | Unfixed Adduct (%) (Hb [1]) | Partitioning Ratio (%) (Hb [1]) | Hb Modification (%) (Hb [2]) | effect on Hb oxygen binding property (OEC) (Hb [5]) | other results
O=Cc1c(O)cccc1OCc1ccncc1 [Comp 3, 2-hydroxy-6-(pyridin-4-ylmethoxy)benzaldehyde] | 60.1 ± 3.0% | 60.0 ± 3.3% | 100.1 ± 0.9% | 74.4 ± 10.6% |  | 
O=Cc1c(O)cccc1OCc1cncc(F)c1 [Comp 4, 2-((5-fluoropyridin-3-yl)methoxy)-6-hydroxybenzaldehyde] | 85.9 ± 7.1% | 88.8 ± 6.2% | 96.9 ± 5.73% | 92.9 ± 9.8% |  | AUC(0-inf) [3]: 831000 ng·h/mL and 3360 µM·h; Cmax [3]: 59800 ng/mL and 242 µM; half-life [3]: 354 min
O=Cc1c(O)cccc1OCc1cccnc1F [Comp 6, 2-((2-fluoropyridin-3-yl)methoxy)-6-hydroxybenzaldehyde] | 67.3 ± 12.1% | 67.1 ± 10.3% | 100.0 ± 2.8% | 73.8 ± 15.4% |  | AUC(0-inf) [3]: 180000 ng·h/mL and 728 µM·h; Cmax [3]: 12100 ng/mL and 49 µM; half-life [3]: 492 min
O=Cc1c(O)cccc1OCc1cccnc1Cl [Comp 7, 2-((2-chloropyridin-3-yl)methoxy)-6-hydroxybenzaldehyde] | 59.6 ± 5.7% | 60.2 ± 5.7% | 99.0 ± 3.1% | 73.91 ± 9.8% |  | 
O=Cc1c(O)cccc1OCc1ncccc1Cl [Comp 8, 2-((3-chloropyridin-2-yl)methoxy)-6-hydroxybenzaldehyde] | 85.6 ± 2.5% | 84.8 ± 7.5% | 101.3 ± 6.3% | 100.0 ± 0.0% |  | AUC(0-inf) [3]: 269000 ng·h/mL and 1020 µM·h; Cmax [3]: 20000 ng/mL and 76 µM; half-life [3]: 570 min
O=Cc1c(F)cc(F)cc1OCc1ccccn1 [Comp 9, 2,4-difluoro-6-(pyridin-2-ylmethoxy)benzaldehyde] | 72.7 ± 4.1% | 69.4 ± 7.5% | 105.2 ± 5.9% | 69.1 ± 11.8% |  | polymer destabilizing effect / sickle inhibition in anoxia (in words) [4]: completely negates the polymer destabilization effects
O=Cc1c(O)cccc1OCc1cncnc1 [Comp 10, 2-hydroxy-6-(pyrimidin-5-ylmethoxy)benzaldehyde] | 94.8 ± 2.8% | 96.3 ± 3.0% | 98.5 ± 2.7% | 100.0 ± 0.0% |  | AUC(0-inf) [3]: 693000 ng·h/mL and 3010 µM·h; Cmax [3]: 36200 ng/mL and 157 µM; half-life [3]: 282 min
O=Cc1c(O)cccc1OCc1ncccn1 [Comp 11, 2-hydroxy-6-(pyrimidin-2-ylmethoxy)benzaldehyde] | 88.2 ± 2.1% | 87.7 ± 4.3% | 100.7 ± 3.0% | 98.1 ± 3.2% |  | 
COC(=O)c1ccc(COc2ccc(OC)cc2C=O)nc1 [PP1, Methyl 6-((2-formyl-4-methoxyphenoxy)methyl)nicotinate] |  |  |  |  | minimal effect | 
COC(=O)c1cccc(COc2cccc(O)c2C=O)n1 [PP10, Methyl 6-((2-formyl-3-hydroxyphenoxy)methyl)picolinate] |  |  |  |  |  | modified Hb (intracellular Hb): 9.6±1.9%

The next lines start with results.

Fixed Adducts (%) (Hb [1]) | Unfixed Adduct (%) (Hb [1]) | Partitioning Ratio (%) (Hb [1]) | Hb Modification (%) (Hb [2]) | effect on Hb oxygen binding property (OEC) (Hb [5]) | Compound | other results
 |  |  |  | minimal effect | COC(=O)c1ccnc(COc2ccc(OC)cc2C=O)c1 [PP4] | 
 |  |  |  | most significant activities | COC(=O)c1ccnc(COc2cccc(O)c2C=O)c1 [PP7, Methyl 2-((2-formyl-3-hydroxyphenoxy)methyl)isonicotinate] | 
 |  |  |  | most significant activities | COC(=O)c1cncc(COc2ccc(OC)cc2C=O)c1 [PP12, Methyl 5-((2-formyl-4-methoxyphenoxy)methyl)nicotinate] | 
 |  |  |  | very weak functional effect | COc1cc(C=O)ccc1O [vanillin, reference compound] | sickling inhibition (in words) (sickle red blood cells): minimal sickling inhibition
